Experimental data: patent US7713960B2, “Inhibition of the Raf/Mek/P-Erk pathway for treating cancer” (University of South Florida, priority 2005, dated 2010)

How the values were obtained:
Rap-1 = Rap-1 activation assay, ACHN cells; assay type: cell-based, human; conditions: 10 μM, 1 hour
Procedure: The effect of B2AR stimulation on Rap1 was investigated using the following methods: A Rap-1 activation assay kit (Upstate, Temecula, Calif.) was used according to protocol to determine if stimulation of the B2AR by ARA-211, and subsequent downstream signaling resulting in inhibition of P-Erk 1/2, is mediated by activation of Rap-1 directly by the Rap-1 guanine nucleotide exchange factor Epac. […] Cells were incubated with drugs for 1 hour unless noted otherwise. Cells were then lysed, the positive control lysate was incubated with 10 mM EDTA and 100 μM GTPγS and incubated for 30 minutes to load GTP onto Rap-1. Lysates from all samples were then incubated with 25 μg GST-RalGDS-Rap-1 binding domain beads for 45 minutes, washed with assay buffer 3×, resuspended in 40 μl of 2×Laemmli sample buffer and boiled for 5 minutes. Samples were resolved by SDS-PAGE electrophoresis, transferred to nitrocellulose, blotted overnight with 1 μ/ml polyclonal anti-Rap-1, and visualized by chemiluminescence.

Mek-1 = biological target: T1, Mek-1 (Homo sapiens, UniProt Q02750); test: In vitro kinase assay, Mek-1 immunoprecipitated from MDA-MB-231 cells; assay type: biochemical; conditions: immunoprecipitated kinase treated in vitro, 10 μM
T1 construct: c-Raf-1 and Mek-1, immunoprecipitated from MDA-MB-231 cells; endogenous in cells; host or cells: MDA-MB-231
Procedure: In Vitro Kinase Assays—MDA-MB-231 cells (2×10^6) were lysed for 30 minutes at 4° C. in RIPA-150 buffer (10 mM Tris pH 7.5, 150 mM NaCl, 10% glycerol, 5 mM EDTA, 1% Triton X-100, 0.1% SDS, 100 μM sodium orthovanadate, 1 μM aprotinin, 10 μM leupeptin, 10 μM antipain). Cell debris was pelleted at 13000 rpm for 15 minutes at 4° C. and the lysate was rocked overnight with 10 μg of either c-Raf or MEK antibodies (Santa Cruz Biotechnologies, Santa Cruz, Calif.). 25 μl of protein A/G PLUS agarose (Santa Cruz Biotechnology) was then added and rocked for 4 hours at 4° C. Samples were spun at 2000 rpm for 5 minutes to collect the agarose beads, which were then washed four times with lysis buffer. On the final wash each pellet was divided into 5. […]

MDA-MB-231 cells = test: Alamar Blue proliferation assay, MDA-MB-231; assay type: cell-based, human; conditions: MDA-MB-231; with ARA-211
Procedure: Cell Lines and Transfections—All cell lines used were obtained from American Type Tissue Collection (ATCC), (Manassas, Va.), or from the DCTD Tumor Repository, (Frederick, Md.). Propagation was carried out according to ATCC protocols. Propagation media was obtained from Invitrogen Corporation (Carlsbad, Calif.). DNA transfections were carried out using TransIT-LT1 transfection reagent (Takara Mirus, Madison, Wis.) according to the manufacturer's protocol. Briefly, 4×10^5 MDA-MB-231 cells were grown to approximately 70% confluency in medium supplemented with 10% FBS (Atlanta Biologicals, Atlanta, Ga.) in the absence of antibiotics. For transfection, LT1 was pre-incubated in 200 μl per transfection in Opti-MEM (Invitrogen) for 20 minutes prior to addition of plasmid. […]
Alamar Blue proliferation assay—For proliferation assays using exogenous constitutively activated MEK or the B2AR antagonist ICI-118.551, Alamar Blue metabolism assay used to determine cell viability according to the manufacturers protocol (Biosource, Camarillo, Calif.). […] Media/Alamar Blue was removed from the cells and aliquoted into 96 well plates (100 μl per well) and fluorescence read on a Wallac Victor 2 plate reader at excitation 540 nm, and emission 615 nm.

P-Erk 1/2 = P-Erk 1/2 levels (Western blotting), MDA-MB-231; assay type: cell-based, human; conditions: MDA-MB-231; with ARA-211
Procedure: Western Blotting—Treated cell samples were lysed in 30 mM HEPES, 10 mM NaCl, 5 mM MgCl2, 25 mM NaF, 1 mM EGTA, 1% Triton-X-100, 10% Glycerol, 2 mM Sodium orthovanidate, 10 μg/mL aprotinin, 10 μg/mL soybean trypsin inhibitor, 25 μg/mL leupeptin, 2 mM phenylmethylsulfonylfluoride (PMSF), 6.4 mg/mL p-nitrophenylphosphate for 30 minutes at 4° C., and proteins run on SDS-PAGE gels then transferred to nitrocellulose membranes. Membranes were blocked in either 5% milk in PBS, pH 7.4, containing 0.1% Tween-20 (PBS-T) or 1% BSA in TBS, pH 7.5, containing 0.1% Tween-20 (TBS-T). Phospho-STAT3 and phospho-AKT antibodies were diluted in 1% BSA in TBS-T while phospho-c-Raf, phospho-Mek, and phospho-p44/p42 MAPK antibodies (Cell Signaling) were diluted in 5% milk in PBS-T for either 1 hour at room temperature or overnight at 4° C. HRP-conjugated secondary antibodies (Jackson ImmunoResearch, West Grove, Pa.) were diluted in 5% milk in PBS-T or TBS-T at a 1:1000 dilution for one hour at room temperature. Western blots results were visualized using enhanced chemiluminescence. Stripping of the membranes for reblotting was done using stripping buffer (62.5 mM Tris pH 7.6, 2% SDS, 0.7% 2-mercaptoethanol) at 50° C. for 30 minutes.

T1 sequence (Q02750 whole entry): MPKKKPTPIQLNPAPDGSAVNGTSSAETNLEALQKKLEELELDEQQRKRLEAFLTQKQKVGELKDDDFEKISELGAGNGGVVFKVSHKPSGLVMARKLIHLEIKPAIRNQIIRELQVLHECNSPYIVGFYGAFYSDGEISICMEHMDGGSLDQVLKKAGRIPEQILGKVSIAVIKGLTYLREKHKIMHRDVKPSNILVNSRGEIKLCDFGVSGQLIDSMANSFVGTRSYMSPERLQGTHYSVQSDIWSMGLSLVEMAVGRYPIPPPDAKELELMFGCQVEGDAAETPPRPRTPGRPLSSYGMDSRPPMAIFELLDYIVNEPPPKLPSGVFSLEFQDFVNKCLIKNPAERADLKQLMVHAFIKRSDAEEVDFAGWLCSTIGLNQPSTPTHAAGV

| Compound | Rap-1 activation (GTP-loaded Rap-1) (Rap-1) | further results |
| --- | --- | --- |
| CC(C)NCC(O)c1ccc(O)c(O)c1 (stereo not drawn) [isoproterenol] | activated Rap-1 | – |
| N#CC(=C(/N)Sc1ccccc1N)/C(C#N)=C(\N)Sc1ccccc1N [U-0126] | – | in vitro Mek-1 kinase activity (Mek-1): blocked |
| O=S(=O)(NCCNC/C=C/c1ccc(Br)cc1)c1cccc2cnccc12 [H89] | had no effect on Rap-1 activation | – |
| Cc1ccc(OCC(O)C(C)NC(C)C)c2c1CCC2 (stereo not drawn) [ICI 118, 551] | – | effect of β2 AR antagonist on ARA-211 inhibition of tumor cell growth (MDA-MB-231 cells): rescued human cancer cells from ARA-211 inhibition of tumor cell growth; effect of β2 antagonist on ARA-211 suppression of P-Erk 1/2 levels (P-Erk 1/2): prevented ARA-211 from suppressing P-Erk 1/2 levels |
| CO[C@@H]1[C@@H]2OP(=O)(O)OC[C@H]2O[C@H]1n1c(Sc2ccc(Cl)cc2)nc2c(N)ncnc21 [EPAC activator, 8-(4-chlorophenylthio)-2′-O-methyladenosine-3′,5′-cyclic monophosphate] | activated Rap-1 | – |
